Test results from patent US20110230476A1, “PI3 KINASE INHIBITORS AND USES THEREOF” (AVILA THERAPEUTICS, INC., priority 2009, published 2011).
“Also recorded” adds a separate entry of the source.

Tests used:
PI3Kα [1] = target: T1, PI3Kα (Homo sapiens, UniProt P42336); test: Trypsin digest and MS-MS analysis of compound-treated PI3Kα; assay type: binding; design: purchased Millipore 14-602; conditions: in-gel trypsin digest
Description: (§1) The PI3Kα protein band was then excised and subjected to an in-gel trypsin digest by reducing the protein with DTT, alkylating the thiols with iodoacetamide, and then incubating the protein gel band with trypsin overnight in a 37° C. water bath. The digest was then stopped by addition of trifluoroacetic acid, and peptides were removed from gel band by sonicating with increasing amounts of acetonitrile (0%, 30%, & 60%). Peptides were then purified using C18 ziptips, spotted on the MALDI target plate with α-cyano-4-hydroxycinnamic acid as the desorption matrix (10 mg/ml in 0.1% TFA:Acetonitrile 50:50), and analyzed in reflectron mode.
as §1, with “trifluoro acetic” for “trifluoroacetic”
Target sequence in this assay (P42336 whole entry): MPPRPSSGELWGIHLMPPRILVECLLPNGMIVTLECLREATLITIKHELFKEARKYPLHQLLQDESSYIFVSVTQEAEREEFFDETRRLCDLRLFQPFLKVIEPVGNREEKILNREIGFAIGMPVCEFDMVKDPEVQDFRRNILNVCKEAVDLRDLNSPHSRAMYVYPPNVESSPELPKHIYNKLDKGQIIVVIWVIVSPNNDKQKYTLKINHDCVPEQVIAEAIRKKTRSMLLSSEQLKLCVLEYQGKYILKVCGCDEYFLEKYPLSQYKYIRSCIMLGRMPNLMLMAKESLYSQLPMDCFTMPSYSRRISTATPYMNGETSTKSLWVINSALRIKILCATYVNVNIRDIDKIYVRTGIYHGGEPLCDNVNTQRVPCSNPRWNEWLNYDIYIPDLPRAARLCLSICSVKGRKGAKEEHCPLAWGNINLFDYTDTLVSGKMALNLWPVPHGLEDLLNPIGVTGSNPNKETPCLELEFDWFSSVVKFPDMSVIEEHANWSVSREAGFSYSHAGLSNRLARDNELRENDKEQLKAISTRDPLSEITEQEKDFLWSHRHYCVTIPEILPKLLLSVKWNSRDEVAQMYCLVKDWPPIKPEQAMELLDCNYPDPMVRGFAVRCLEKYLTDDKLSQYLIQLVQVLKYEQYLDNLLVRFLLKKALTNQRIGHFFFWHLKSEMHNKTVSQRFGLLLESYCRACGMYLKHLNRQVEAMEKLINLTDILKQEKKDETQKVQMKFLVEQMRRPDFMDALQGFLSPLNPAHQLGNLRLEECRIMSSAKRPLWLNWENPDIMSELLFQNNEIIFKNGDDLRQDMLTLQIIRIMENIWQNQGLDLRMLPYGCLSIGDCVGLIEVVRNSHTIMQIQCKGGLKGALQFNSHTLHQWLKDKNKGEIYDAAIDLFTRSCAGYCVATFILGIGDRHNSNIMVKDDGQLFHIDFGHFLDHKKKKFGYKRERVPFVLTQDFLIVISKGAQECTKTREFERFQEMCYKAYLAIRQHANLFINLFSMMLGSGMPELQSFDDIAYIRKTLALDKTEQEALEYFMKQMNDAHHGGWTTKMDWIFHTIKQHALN
Target sequence in this assay (P27986 whole entry partner): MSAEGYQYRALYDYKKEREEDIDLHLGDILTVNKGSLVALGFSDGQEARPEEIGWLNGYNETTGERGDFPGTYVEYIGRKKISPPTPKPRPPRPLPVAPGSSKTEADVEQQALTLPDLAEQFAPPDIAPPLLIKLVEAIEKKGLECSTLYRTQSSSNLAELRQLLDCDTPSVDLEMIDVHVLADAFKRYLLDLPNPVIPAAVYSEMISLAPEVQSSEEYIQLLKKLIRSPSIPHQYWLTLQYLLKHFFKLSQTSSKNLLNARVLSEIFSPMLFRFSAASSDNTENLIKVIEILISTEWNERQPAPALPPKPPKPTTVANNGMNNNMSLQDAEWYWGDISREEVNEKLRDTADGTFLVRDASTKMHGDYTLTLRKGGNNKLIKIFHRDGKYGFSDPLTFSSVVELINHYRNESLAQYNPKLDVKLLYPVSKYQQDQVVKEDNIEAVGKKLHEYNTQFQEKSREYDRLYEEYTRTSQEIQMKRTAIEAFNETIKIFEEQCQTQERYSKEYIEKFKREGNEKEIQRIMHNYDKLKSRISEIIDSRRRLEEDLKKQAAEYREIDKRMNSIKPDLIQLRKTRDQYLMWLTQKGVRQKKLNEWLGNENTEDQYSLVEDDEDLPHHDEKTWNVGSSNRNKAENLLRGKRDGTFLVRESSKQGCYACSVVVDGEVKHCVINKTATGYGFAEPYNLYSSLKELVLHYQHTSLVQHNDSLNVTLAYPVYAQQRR

PI3Kα [2] = target: T1, PI3Kα; test: Mass spectrometry of intact PI3Kα (Johns Hopkins), 3 hr incubation; assay type: binding; design: Johns Hopkins; conditions: 10× fold excess of compound, MALDI
Description: Mass Spectrometry for PI3K
Intact PI3Kα (Johns Hopkins) was incubated for 3 hr at a 10× fold excess of II-a-45 or II-a-49 to protein. Aliquots (3 μL) of the samples were diluted with 10 μL of 0.1% TFA prior to micro C4 ZipTipping directly onto the MALDI target using Sinapinic acid as the desorption matrix (10 mg/ml in 0.1% TFA:Acetonitrile 50:50).
Target sequence in this assay (P42336 whole entry): as the sequence (P42336 whole entry) above
Target sequence in this assay (P27986 322-600 partner limits assumed): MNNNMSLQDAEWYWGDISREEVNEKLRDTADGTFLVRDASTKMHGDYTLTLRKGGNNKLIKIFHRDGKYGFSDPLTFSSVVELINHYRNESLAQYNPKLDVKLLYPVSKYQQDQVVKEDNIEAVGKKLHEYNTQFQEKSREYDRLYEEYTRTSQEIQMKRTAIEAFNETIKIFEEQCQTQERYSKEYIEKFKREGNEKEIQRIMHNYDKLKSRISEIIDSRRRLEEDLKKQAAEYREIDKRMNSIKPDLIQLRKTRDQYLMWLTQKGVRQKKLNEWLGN

PI3Kγ (p120γ) = target: T2, PI3Kγ (p120γ) (Homo sapiens, UniProt P48736); test: HTRF assay, potency against active PI3Kγ; assay type: biochemical; conditions: [ATP]=50 μM, [di-C8-PIP2]=10 μM, 30 min pre-incubation, read-out: PI3Kγ Inhibition
T2 construct: purchased BPS Bioscience (San Diego, Calif.) or Millipore (Billerica, Mass.)
Outline: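 End-point competition HTRF: enzyme (p110β/p85α 0.75 nM; p120γ 2-2.5 nM) with 10 μM di-C8-PIP2 pre-incubated 30 min at 25° C with compound, then 50 μM ATP added for 30-60 min at 25° C. Stopped, detected after 1 and 18 h; IC50 from variable-slope fit.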

PI3Kα (p110α/p85α) = target: T3, PI3Kα (p110α/p85α) (Homo sapiens, UniProt P42336); test: HTRF assay, potency against active PI3Kα; assay type: biochemical; conditions: HTRF; [ATP]=50 μM, [di-C8-PIP2]=10 μM; 30 min pre-incubation; read-out: PI3Kα Inhibition
T3 construct: purchased BPS Bioscience (San Diego, Calif.) or Millipore (Billerica, Mass.)
Outline: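 Active p110/p85α lipid kinase reactions were started with ATP and run 30-60 minutes at 25 °C, then stopped and developed with HTRF detection mix. HTRF ratio converted to % inhibition against ±enzyme controls; IC50 from log[inhibitor] vs response, variable slope.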

PI3K = PI3K HCT116 cellular assay (Western blot); assay type: cell-based; conditions: Homo sapiens, HCT-116, HCT116 colon cancer cells, 1 hour incubation, read-out: PI3K Inhibition
Description: PI3K HCT116 Cellular Assay
Selected compounds were assayed in HCT116 colon cancer cells. […] Cells were then washed with PBS, lysed and the protein lysates were then recovered and analyzed by Western blot.

T2 sequence (P48736 whole entry): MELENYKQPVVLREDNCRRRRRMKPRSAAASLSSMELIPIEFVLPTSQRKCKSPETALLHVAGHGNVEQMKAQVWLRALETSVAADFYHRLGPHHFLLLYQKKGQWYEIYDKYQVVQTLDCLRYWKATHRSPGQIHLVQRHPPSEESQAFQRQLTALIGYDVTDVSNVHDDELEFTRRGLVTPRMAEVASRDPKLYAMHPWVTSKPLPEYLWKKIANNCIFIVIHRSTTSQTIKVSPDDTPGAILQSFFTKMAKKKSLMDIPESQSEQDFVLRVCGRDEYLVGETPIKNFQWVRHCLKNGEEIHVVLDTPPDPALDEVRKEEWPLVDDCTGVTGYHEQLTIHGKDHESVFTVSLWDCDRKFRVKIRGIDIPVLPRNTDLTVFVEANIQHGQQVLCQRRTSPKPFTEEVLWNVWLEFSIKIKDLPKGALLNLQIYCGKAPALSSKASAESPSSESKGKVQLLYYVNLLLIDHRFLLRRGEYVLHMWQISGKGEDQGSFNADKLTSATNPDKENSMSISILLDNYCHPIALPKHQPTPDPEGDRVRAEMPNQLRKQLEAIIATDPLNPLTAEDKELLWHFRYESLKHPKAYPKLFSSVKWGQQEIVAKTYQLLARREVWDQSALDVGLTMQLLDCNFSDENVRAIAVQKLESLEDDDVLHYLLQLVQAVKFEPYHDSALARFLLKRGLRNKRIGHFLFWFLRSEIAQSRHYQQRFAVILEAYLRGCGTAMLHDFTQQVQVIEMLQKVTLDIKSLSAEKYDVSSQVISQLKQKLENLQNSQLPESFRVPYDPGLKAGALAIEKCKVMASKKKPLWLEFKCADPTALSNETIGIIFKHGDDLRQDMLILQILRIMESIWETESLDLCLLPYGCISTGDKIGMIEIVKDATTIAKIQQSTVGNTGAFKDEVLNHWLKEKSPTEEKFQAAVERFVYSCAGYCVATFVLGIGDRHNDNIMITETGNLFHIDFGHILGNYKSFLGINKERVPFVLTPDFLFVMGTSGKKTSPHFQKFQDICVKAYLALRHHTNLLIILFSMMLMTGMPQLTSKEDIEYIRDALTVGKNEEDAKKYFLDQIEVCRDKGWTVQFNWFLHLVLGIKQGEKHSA
T3 sequence (P42336 whole entry): as the sequence (P42336 whole entry) above
T3 sequence (P27986 whole entry partner): as the sequence (P27986 whole entry partner) above

covalent modification of PI3Kα (PI3Kα [2]) | IC50 (PI3Kγ (p120γ)) [nM] | IC50 (PI3Kα (p110α/p85α)) [nM] | EC50 (PI3K) [nM] | SMILES | site on PI3Kα that is covalently modified (PI3Kα [1])
 |  |  |  | CC(C)=CC(=O)CCC(=O)N1CCN(Cc2cc3nc(-c4cccc5[nH]ncc45)nc(N4CCOCC4)c3s2)CC1 [II-a-3, 1-(4-((2-(1H-indazol-4-yl)-4-morpholinothieno[3,2-d]pyrimidin-6-yl)methyl)piperazin-1-yl)-6-methylhept-5-ene-1,4-dione] | Cys-862; also recorded: peptide ^853NSHTIMQIQCK^863
completely modify | > 1000 | < 10 | < 20 | C/C=C/C(=O)CCC(=O)N1CCN(Cc2cc3nc(-c4cccc5[nH]ncc45)nc(N4CCOCC4)c3s2)CC1 [II-a-36, (E)-1-(4-((2-(1H-indazol-4-yl)-4-morpholinothieno[3,2-d]pyrimidin-6-yl)methyl)piperazin-1-yl)hept-5-ene-1,4-dione] | 
